Experimental data from patent US20240383886A1, “Protein Tyrosine Phosphatase Degraders and Methods of Use Thereof” (CALICO LIFE SCIENCES LLC, priority 2019, published 2024).

Legend:
PTPN2 [1] = assay: HiBiT-Degradation B16F10.4 PTPN2; type: cell-based; settings: B16F10.4 cells, 24.0 hours
PTPN2 [2] = target: T1, PTPN2 (Homo sapiens, UniProt P17706); assay: HiBiT-Degradation 293T.109 PTPN2 (Nano-Glo HiBiT Lytic Assay); type: cell-based; settings: 293T.109 (HiBiT-PTPN2) cells, 24.0 hours
T1 construct: expressed in transfected cells; host or cells: 293T (293T.109 HiBiT-PTPN2 line; parental 293T WT from ATCC)
T1 sequence (P17706 1-415): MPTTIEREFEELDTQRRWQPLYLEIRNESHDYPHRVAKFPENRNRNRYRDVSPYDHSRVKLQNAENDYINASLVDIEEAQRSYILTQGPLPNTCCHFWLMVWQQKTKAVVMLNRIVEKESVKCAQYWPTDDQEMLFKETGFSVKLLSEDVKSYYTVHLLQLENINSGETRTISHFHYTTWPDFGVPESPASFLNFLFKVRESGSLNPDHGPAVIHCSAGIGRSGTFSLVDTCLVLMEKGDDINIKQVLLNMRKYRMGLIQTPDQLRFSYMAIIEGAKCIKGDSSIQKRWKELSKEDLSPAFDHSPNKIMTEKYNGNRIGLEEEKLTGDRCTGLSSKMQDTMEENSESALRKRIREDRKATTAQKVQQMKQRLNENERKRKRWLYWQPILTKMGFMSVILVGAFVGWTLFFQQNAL
From the text: Dulbecco's modified Eagle medium (DMEM) without phenol red and fetal bovine serum (FBS) were purchased from Gibco (Grand Island, NY, USA). Nano-Glo® HiBIT Lytic Assay System was purchased from Promega (Madison, WI, USA). 293T.109 (HiBiT-PTPN2) cell line was generated by ectopically expressing PTPN2 with N-terminal HiBiT fusion tag in 293T WT cell line purchased from ATCC (Manassas, VA, USA). Cell culture flasks and 384-well microplates were acquired from VWR (Radnor, PA, USA).
PTPN2 degradation was determined based on quantification of luminescent signal using Nano-Glo® HiBIT Lytic Assay kit. Test compounds were added to the 384-well plate from a top concentration of 10 μM with 11 points, half log titration in duplicates. 293T.109 cells were added into 384-well plates at a cell density of 5000 cells per well. The plates were kept at 37° C. with 5% CO2 for 24 hours. The cells treated in the absence of the test compound were the negative control and the cells without Nano-Glo® HiBiT Lytic reagent were the positive control. After 24-hour incubation, Nano-Glo® HiBIT Lytic Assay reagents were added to the cells. Luminescence was acquired on EnVision™ Multilabel Reader (PerkinElmer, Santa Clara, CA, USA).

Row | DC50 (PTPN2 [1]) | DC50 (PTPN2 [2]) | SMILES
1 | ≥ 1000 nM | 50 to 200 nM | O=C(CN1CCC(c2ccc(NC3CCC(=O)NC3=O)cc2F)CC1)NCCOc1ccc2cc(O)c(N3CC(=O)NS3(=O)=O)c(F)c2c1 (stereo not drawn) [Example 10, 2-[4-[4-[(2,6-dioxo-3-piperidyl)amino]-2-fluoro-phenyl]-1-piperidyl]-N-[2-[[8-fluoro-6-hydroxy-7-(1,1,4-trioxo-1,2,5-thiadiazolidin-2-yl)-2-naphthyl]oxy]ethyl]acetamide]
2 | 200 to 1000 nM | 200 to 1000 nM | O=C(C=Cc1ccc2cc(O)c(N3CC(=O)NS3(=O)=O)c(F)c2c1)NC1CCN(C(=O)COc2cccc3c2CN(C2CCC(=O)NC2=O)C3=O)CC1 (stereo not drawn) [Example 11, 3-(7-(1,1-dioxido-4-oxo-1,2,5-thiadiazolidin-2-yl)-8-fluoro-6-hydroxynaphthalen-2-yl)-N-(1-(2-((2-(2,6-dioxopiperidin-3-yl)-1-oxoisoindolin-4-yl)oxy)acetyl)piperidin-4-yl)acrylamide]
3 | ≥ 1000 nM | 200 to 1000 nM | O=C1CCC(N2C(=O)c3cccc(NCc4cnn(CCC(=O)Nc5ccc6c(F)c(N7CC(=O)NS7(=O)=O)c(O)cc6c5)c4)c3C2=O)C(=O)N1 (stereo not drawn) [Example 12, 3-[4-[[[2-(2,6-dioxo-3-piperidyl)-1,3-dioxo-isoindolin-4-yl]amino]methyl]pyrazol-1-yl]-N-[5-fluoro-7-hydroxy-6-(1,1,4-trioxo-1,2,5-thiadiazolidin-2-yl)-2-naphthyl]propanamide]
4 | 200 to 1000 nM | 50 to 200 nM | O=C1CCC(N2Cc3c(NCc4cnn(CCC(=O)Nc5ccc6c(F)c(N7CC(=O)NS7(=O)=O)c(O)cc6c5)c4)cccc3C2=O)C(=O)N1 (stereo not drawn) [Example 13, 3-[4-[[[2-(2,6-dioxo-3-piperidyl)-1-oxo-isoindolin-4-yl]amino]methyl]pyrazol-1-yl]-N-[5-fluoro-7-hydroxy-6-(1,1,4-trioxo-1,2,5-thiadiazolidin-2-yl)-2-naphthyl]propanamide]
5 | 200 to 1000 nM | 200 to 1000 nM | O=C1CCC(N2C(=O)c3ccc(NCc4cn(CCC(=O)Nc5ccc6c(F)c(N7CC(=O)NS7(=O)=O)c(O)cc6c5)nn4)cc3C2=O)C(=O)N1 (stereo not drawn) [Example 14, N-(6-(1,1-dioxido-4-oxo-1,2,5-thiadiazolidin-2-yl)-5-fluoro-7-hydroxynaphthalen-2-yl)-3-(4-(((2-(2,6-dioxopiperidin-3-yl)-1,3-dioxoisoindolin-5-yl)amino)methyl)-1H-1,2,3-triazol-1-yl)propanamide]
6 | 200 to 1000 nM | 200 to 1000 nM | O=C1CCC(N2Cc3cc(NCc4cn(CCC(=O)Nc5ccc6c(F)c(N7CC(=O)NS7(=O)=O)c(O)cc6c5)nn4)ccc3C2=O)C(=O)N1 (stereo not drawn) [Example 15, 3-[4-[[[2-(2,6-dioxo-3-piperidyl)-1-oxo-isoindolin-5-yl]amino]methyl]triazol-1-yl]-N-[5-fluoro-7-hydroxy-6-(1,1,4-trioxo-1,2,5-thiadiazolidin-2-yl)-2-naphthyl]propanamide]
7 | 200 to 1000 nM | 50 to 200 nM | O=C1CCC(N2Cc3cc(NCc4cnn(CCC(=O)Nc5ccc6c(F)c(N7CC(=O)NS7(=O)=O)c(O)cc6c5)c4)ccc3C2=O)C(=O)N1 (stereo not drawn) [Example 16, 3-[4-[[[2-(2,6-dioxo-3-piperidyl)-1-oxo-isoindolin-5-yl]amino]methyl]pyrazol-1-yl]-N-[5-fluoro-7-hydroxy-6-(1,1,4-trioxo-1,2,5-thiadiazolidin-2-yl)-2-naphthyl]propanamide]
8 | ≥ 1000 nM | 50 to 200 nM | O=C1CCC(N2C(=O)c3cccc(NCc4cn(C5CN(C(=O)Nc6ccc7c(F)c(N8CC(=O)NS8(=O)=O)c(O)cc7c6)C5)nn4)c3C2=O)C(=O)N1 (stereo not drawn) [Example 17, 3-[4-[[[2-(2,6-dioxo-3-piperidyl)-1,3-dioxo-isoindolin-4-yl]amino]methyl]triazol-1-yl]-N-[5-fluoro-7-hydroxy-6-(1,1,4-trioxo-1,2,5-thiadiazolidin-2-yl)-2-naphthyl]azetidine-1-carboxamide]
9 | ≥ 1000 nM | 200 to 1000 nM | CC(C)(Nc1cccc2c1C(=O)N(C1CCC(=O)NC1=O)C2=O)c1cn(CCC(=O)Nc2ccc3c(F)c(N4CC(=O)NS4(=O)=O)c(O)cc3c2)nn1 (stereo not drawn) [Example 18, N-(6-(1,1-dioxido-4-oxo-1,2,5-thiadiazolidin-2-yl)-5-fluoro-7-hydroxynaphthalen-2-yl)-3-(4-(2-((2-(2,6-dioxopiperidin-3-yl)-1,3-dioxoisoindolin-4-yl)amino)propan-2-yl)-1H-1,2,3-triazol-1-yl)propanamide]
10 | 200 to 1000 nM | 50 to 200 nM | O=C1CCC(N2Cc3c(OCc4cn(CCC(=O)Nc5ccc6c(F)c(N7CC(=O)NS7(=O)=O)c(O)cc6c5)nn4)cccc3C2=O)C(=O)N1 (stereo not drawn) [Example 19, N-(6-(1,1-dioxido-4-oxo-1,2,5-thiadiazolidin-2-yl)-5-fluoro-7-hydroxynaphthalen-2-yl)-3-(4-(((2-(2,6-dioxopiperidin-3-yl)-1-oxoisoindolin-4-yl)oxy)methyl)-1H-1,2,3-triazol-1-yl)propanamide]
11 | 50 to 200 nM | 50 to 200 nM | O=C1CCC(N2Cc3cc(OCc4cn(CCC(=O)Nc5ccc6c(F)c(N7CC(=O)NS7(=O)=O)c(O)cc6c5)nn4)ccc3C2=O)C(=O)N1 (stereo not drawn) [Example 20, 3-[4-[[2-(2,6-dioxo-3-piperidyl)-1-oxo-isoindolin-5-yl]oxymethyl]triazol-1-yl]-N-[5-fluoro-7-hydroxy-6-(1,1,4-trioxo-1,2,5-thiadiazolidin-2-yl)-2-naphthyl]propanamide]
12 | 200 to 1000 nM | 50 to 200 nM | O=C1CCC(N2Cc3c(OCc4cnn(CCC(=O)Nc5ccc6c(F)c(N7CC(=O)NS7(=O)=O)c(O)cc6c5)c4)cccc3C2=O)C(=O)N1 (stereo not drawn) [Example 21, N-(6-(1,1-dioxido-4-oxo-1,2,5-thiadiazolidin-2-yl)-5-fluoro-7-hydroxynaphthalen-2-yl)-3-(4-(((2-(2,6-dioxopiperidin-3-yl)-1-oxoisoindolin-4-yl)oxy)methyl)-1H-pyrazol-1-yl)propanamide]
13 | 50 to 200 nM | < 10 nM | Cn1c(=O)n(C2CCC(=O)NC2=O)c2ccc(C3CCN(CC(=O)Nc4ccc5c(F)c(N6CC(=O)NS6(=O)=O)c(O)cc5c4)CC3)cc21 (stereo not drawn) [Example 22, N-(6-(1,1-dioxido-4-oxo-1,2,5-thiadiazolidin-2-yl)-5-fluoro-7-hydroxynaphthalen-2-yl)-2-(4-(1-(2,6-dioxopiperidin-3-yl)-3-methyl-2-oxo-2,3-dihydro-1H-benzo[d]imidazol-5-yl)piperidin-1-yl)acetamide]
14 | 50 to 200 nM | 50 to 200 nM | CC(C)n1c(=O)n(C2CCC(=O)NC2=O)c2ccc(C3CCN(CC(=O)Nc4ccc5c(F)c(N6CC(=O)NS6(=O)=O)c(O)cc5c4)CC3)cc21 (stereo not drawn) [Example 24, 2-[4-[1-(2,6-dioxo-3-piperidyl)-3-isopropyl-2-oxo-benzimidazol-5-yl]-1-piperidyl]-N-[5-fluoro-7-hydroxy-6-(1,1,4-trioxo-1,2,5-thiadiazolidin-2-yl)-2-naphthyl]acetamide]
15 | ≥ 1000 nM | 200 to 1000 nM | Cn1c(=O)n(C2CCC(=O)NC2=O)c2cccc(C3CCN(CC(=O)Nc4ccc5c(F)c(N6CC(=O)NS6(=O)=O)c(O)cc5c4)CC3)c21 (stereo not drawn) [Example 25, 2-[4-[1-(2,6-dioxo-3-piperidyl)-3-methyl-2-oxo-benzimidazol-4-yl]-1-piperidyl]-N-[5-fluoro-7-hydroxy-6-(1,1,4-trioxo-1,2,5-thiadiazolidin-2-yl)-2-naphthyl]acetamide]
16 | 50 to 200 nM | 50 to 200 nM | O=C1CCC(N2C(=O)c3cccc4c(C5CCN(CC(=O)Nc6ccc7c(F)c(N8CC(=O)NS8(=O)=O)c(O)cc7c6)CC5)ccc2c34)C(=O)N1 (stereo not drawn) [Example 26, 2-[4-[1-(2,6-dioxo-3-piperidyl)-2-oxo-benzo[cd]indol-6-yl]-1-piperidyl]-N-[5-fluoro-7-hydroxy-6-(1,1,4-trioxo-1,2,5-thiadiazolidin-2-yl)-2-naphthyl]acetamide]
17 | 200 to 1000 nM | 10 to 50 nM | Cn1c(=O)n(C2CCC(=O)NC2=O)c2ccc(NC3CN(CC(=O)Nc4ccc5c(F)c(N6CC(=O)NS6(=O)=O)c(O)cc5c4)C3)cc21 (stereo not drawn) [Example 27, 2-[3-[[1-(2,6-dioxo-3-piperidyl)-3-methyl-2-oxo-benzimidazol-5-yl]amino]azetidin-1-yl]-N-[5-fluoro-7-hydroxy-6-(1,1,4-trioxo-1,2,5-thiadiazolidin-2-yl)-2-naphthyl]acetamide]

Row | SMILES | DC50 (PTPN2 [1]) | DC50 (PTPN2 [2])
18 | O=C1CCC(n2c(=O)oc3cc(C4CCN(CC(=O)Nc5ccc6c(F)c(N7CC(=O)NS7(=O)=O)c(O)cc6c5)CC4)ccc32)C(=O)N1 (stereo not drawn) [Example 23, 2-[4-[3-(2,6-dioxo-3-piperidyl)-2-oxo-1,3-benzoxazol-6-yl]-1-piperidyl]-N-[5-fluoro-7-hydroxy-6-(1,1,4-trioxo-1,2,5-thiadiazolidin-2-yl)-2-naphthyl]acetamide] | 50 to 200 nM | 10 to 50 nM
